Experiments:
[1] = Cytotoxicity against Huh7 ET cells assessed as beta actin level relative to control; assay type: cell-based; parameters: concentration or dose not given beside the values; conditions: human
[2] = tested on: Hepatitis C virus; assay: Antiviral activity against HCV in Huh7 ET cells assessed as HCV RNA derived luciferase activity at 10 uM by replicon assay relative to control; assay type: functional, Hepacivirus hominis
[3] = Selectivity index, ratio of toxicity against Huh7 ET cells to viral activity against HCV; assay type: functional

Question: What does the source list for `CCCCCCCCNc1nc(=O)c2c(nc(Br)n2Cc2ccc(OC)cc2)c(=O)[nH]1`?
Answer: Activity [1]: 69%; Activity [2]: 32%; Selectivity index [3]: 2.155

Question: Which Activity [1] does the source give for `CCCCCCCCNc1nc(=O)c2c(nc(C#CCCO)n2Cc2ccc(OC)cc2)c(=O)[nH]1` here?
Answer: 52%

Question: And the Activity [2]?
Answer: 90%

Question: What about the Selectivity index [3] of the same compound?
Answer: 0.578

Question: With `CCCCCCCCNc1nc(=O)c2c(nc(-c3ccccc3)n2Cc2ccc(OC)cc2)c(=O)[nH]1` as the compound, how does the Activity [1] read?
Answer: 82%

Question: And the Activity [2]?
Answer: 88%

Question: And the Selectivity index [3]?
Answer: 0.932

Question: For `CCCCCCCCNc1nc(=O)c2c(nc(-c3ccc(OC)cc3)n2Cc2ccc(OC)cc2)c(=O)[nH]1`, which Activity [1] is on record?
Answer: 79%

Question: And the Activity [2]?
Answer: 54%

Question: What about the Selectivity index [3] of the same compound?
Answer: 1.463

Question: For `NC(=O)c1ncn([C@@H]2O[C@H](CO)[C@@H](O)[C@H]2O)n1` [RIBAVIRIN], which Activity [1] is on record?
Answer: 12%

Question: And the Activity [2]?
Answer: 89%

Question: And the Selectivity index [3]?
Answer: 0.42
